Among the test systems are COLO 205 colon; NCI-H23 lung; HCC-2998 colon; OVCAR-4 ovarian; LOX IMVI melanoma; MALME-3M melanoma; HCT-116 colon; PC-3 prostate; MDA-MB-231 breast; OVCAR-5 ovarian.
Holding throughout (experiment): NCI anticancer screen, dose series, 48 h

SMILES strings stand for the structures. Where “and” joins values, the source holds several entries; their conditions need not be identical. Equal values may be shown once.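 Exposure lasted 48 hours, with cells grown in 96-well plates and compounds tested at five concentrations. GI50 = concentration required for 50% inhibition of growth. TGI is the concentration that stops growth completely.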

For `N#CS.N=C=S.N=C=S.[Cu+2].[NH2-].[NH2-].[NH2-].[NH2-].c1ccc2ncccc2c1`, the GI50 with COLO 205 colon is over 100000 nM; in the assay with NCI-H23 lung, over 100000 nM; in the assay with HCC-2998 colon, 83900 nM; in the assay on OVCAR-4 ovarian, 20600 nM; in the assay on LOX IMVI melanoma it was 43300 nM; in the assay on MALME-3M melanoma, over 100000 nM. Also, the GI50 in the assay with HCT-116 colon was over 100000 nM; in the assay on PC-3 prostate it was over 100000 nM; with MDA-MB-231 breast, 38700 nM; in the assay on OVCAR-5 ovarian, 21600 nM. Besides, the TGI in the assay with COLO 205 colon was over 100000 nM; in the assay with NCI-H23 lung it was over 100000 nM; in the assay with HCC-2998 colon, over 100000 nM; with OVCAR-4 ovarian it was 43400 nM; in the assay on LOX IMVI melanoma it was over 100000 nM; in the assay on MALME-3M melanoma, over 100000 nM. In addition, the TGI in the assay on HCT-116 colon was over 100000 nM; with PC-3 prostate, over 100000 nM; in the assay with MDA-MB-231 breast, 84200 nM; with OVCAR-5 ovarian, 41000 nM.

As for `O=c1c2ccccc2c2ccccc2c(=O)n1Cc1ccc2c(c1)OCO2`, the TGI is over 100000 nM in the assay on COLO 205 colon; over 71800 nM in the assay with NCI-H23 lung; over 100000 nM with HCC-2998 colon; over 100000 nM in the assay on OVCAR-4 ovarian; over 100000 nM with LOX IMVI melanoma; over 100000 nM with MALME-3M melanoma. In addition, the TGI in the assay with HCT-116 colon, in the assay on PC-3 prostate, in the assay with MDA-MB-231 breast and in the assay with OVCAR-5 ovarian was over 100000 nM in each case.

As for `c1ccc(CN=C(NCc2ccccc2)NCc2ccccc2)cc1`, the GI50 in the assay on COLO 205 colon is 1980 nM; in the assay on NCI-H23 lung, 4660 nM; in the assay with HCC-2998 colon, 3650 nM; in the assay with OVCAR-4 ovarian it was 6230 nM; in the assay on LOX IMVI melanoma, 5520 nM; with MALME-3M melanoma, 3560 nM. The GI50 in the assay with HCT-116 colon is 3970 nM; with PC-3 prostate it was 2760 nM; with MDA-MB-231 breast, 10600 nM; in the assay on OVCAR-5 ovarian, 10100 nM. Besides, the TGI with COLO 205 colon turned out to be 4030 nM; in the assay on NCI-H23 lung it was 17800 nM; with HCC-2998 colon, 12900 nM; in the assay with OVCAR-4 ovarian, 36800 nM; in the assay on LOX IMVI melanoma, 19300 nM; in the assay with MALME-3M melanoma, 17100 nM. The TGI with HCT-116 colon worked out at 17300 nM; with PC-3 prostate, 12900 nM; in the assay on MDA-MB-231 breast it was 25400 nM; in the assay with OVCAR-5 ovarian, 24500 nM.

For the compound `CCN(CC)CCNc1cc(-c2cccc(OC(F)(F)F)c2)nc2ccc(N3CCCC3)cc12`, the GI50 was 1450 nM and 1690 nM in the assay on COLO 205 colon; 1820 nM and 1870 nM and 1890 nM in the assay on NCI-H23 lung; 1340 nM and 1280 nM and 1900 nM in the assay on HCC-2998 colon; 2140 nM and 1620 nM and 3110 nM with OVCAR-4 ovarian; 1560 nM and 1390 nM and 1730 nM with LOX IMVI melanoma; 1720 nM and 2010 nM and 1690 nM in the assay with MALME-3M melanoma. Also, the GI50 with HCT-116 colon is 1240 nM and 1260 nM and 1540 nM; in the assay with PC-3 prostate, 1370 nM and 1570 nM and 1810 nM; in the assay with MDA-MB-231 breast, 1680 nM and 1650 nM and 1500 nM; in the assay on OVCAR-5 ovarian, 1940 nM and 2240 nM. For the same compound, the TGI with COLO 205 colon is 2910 nM and 3240 nM; with NCI-H23 lung, 3650 nM and 3720 nM; with HCC-2998 colon, 2720 nM and 2600 nM and 4060 nM; in the assay with OVCAR-4 ovarian it was 7860 nM and 3670 nM and 12900 nM; with LOX IMVI melanoma, 2960 nM and 2730 nM and 3190 nM; with MALME-3M melanoma it was 3340 nM and 3760 nM and 3170 nM. Moreover, the TGI with HCT-116 colon is 2520 nM and 2720 nM and 3050 nM; in the assay with PC-3 prostate, 2760 nM and 3100 nM and 3810 nM; in the assay with MDA-MB-231 breast it was 3270 nM and 3310 nM and 3130 nM; with OVCAR-5 ovarian it was 3930 nM and 3830 nM and 6120 nM.

In the case of `CN(C)CCCNC(=O)c1cncnc1Nc1ccc(OCc2cccc(F)c2)c(Cl)c1`, the GI50 in the assay on COLO 205 colon is 1790 nM; with NCI-H23 lung, 1740 nM; in the assay on HCC-2998 colon it was 1550 nM; in the assay with OVCAR-4 ovarian, 1830 nM; in the assay with LOX IMVI melanoma, 1440 nM; in the assay with MALME-3M melanoma, 1640 nM. For the same compound, the GI50 in the assay with HCT-116 colon is 1470 nM; in the assay with PC-3 prostate, 1580 nM; with MDA-MB-231 breast it was 1690 nM; in the assay with OVCAR-5 ovarian, 1670 nM. Moreover, the TGI in the assay on COLO 205 colon amounted to 3570 nM; in the assay on NCI-H23 lung it was 3280 nM; in the assay on HCC-2998 colon, 3010 nM; with OVCAR-4 ovarian, 4360 nM; with LOX IMVI melanoma, 2810 nM; in the assay on MALME-3M melanoma, 3020 nM. In addition, the TGI in the assay on HCT-116 colon was 2790 nM; with PC-3 prostate, 3110 nM; in the assay with MDA-MB-231 breast it was 3140 nM; in the assay on OVCAR-5 ovarian, 3070 nM.

Consider `COc1cc(-c2ncn(/C=C\C(=O)OC(C)C)n2)cc(C(F)(F)F)c1`, for which the GI50 in the assay with COLO 205 colon was 43.2 nM and 43.7 nM; in the assay with NCI-H23 lung it was 66.3 nM and 103 nM; with HCC-2998 colon it was 102 nM and 659 nM; in the assay with OVCAR-4 ovarian it was 68.4 nM and 40.7 nM; in the assay with LOX IMVI melanoma it was 27.1 nM and 28.7 nM; with MALME-3M melanoma, 149 nM and 147 nM. Besides, the GI50 was 52.8 nM and 68.8 nM in the assay on HCT-116 colon; 106 nM and 58.4 nM with PC-3 prostate; 65 nM and 39.8 nM in the assay on MDA-MB-231 breast; 196 nM and 154 nM in the assay on OVCAR-5 ovarian. Also, the TGI is 1280 nM and 1460 nM in the assay with COLO 205 colon; 14100 nM and 12100 nM in the assay with NCI-H23 lung; 1410 nM and 3820 nM with HCC-2998 colon; 4180 nM and 9490 nM with OVCAR-4 ovarian; 390 nM and 524 nM with LOX IMVI melanoma; 12900 nM and 15300 nM in the assay on MALME-3M melanoma. Further, the TGI was 1580 nM and 11300 nM in the assay with HCT-116 colon; 14900 nM and 12800 nM with PC-3 prostate; 4810 nM and 7120 nM in the assay on MDA-MB-231 breast; 17300 nM and 14800 nM with OVCAR-5 ovarian.

Consider `COc1cnc2c(c1)C(=O)c1c-2n(CCCNC(C)C)c(=O)c2cc(F)ccc12`, for which the GI50 in the assay on COLO 205 colon was 90.5 nM; in the assay with NCI-H23 lung, 176 nM; in the assay with HCC-2998 colon, 397 nM; in the assay with OVCAR-4 ovarian it was 301 nM; in the assay with LOX IMVI melanoma, 114 nM; in the assay on MALME-3M melanoma it was 197 nM. For the same compound, the GI50 in the assay on HCT-116 colon was 93 nM; in the assay on PC-3 prostate it was 281 nM; with MDA-MB-231 breast it was 402 nM; in the assay with OVCAR-5 ovarian it was 277 nM. For the same compound, the TGI in the assay on COLO 205 colon turned out to be 643 nM; with NCI-H23 lung, 676 nM; in the assay on HCC-2998 colon, 1750 nM; in the assay with OVCAR-4 ovarian it was 1700 nM; in the assay on LOX IMVI melanoma it was 249 nM; in the assay with MALME-3M melanoma, 937 nM. The TGI with HCT-116 colon came out at 328 nM; in the assay on PC-3 prostate, 2550 nM; in the assay with MDA-MB-231 breast, 1570 nM; in the assay on OVCAR-5 ovarian, 856 nM.
